According to ChEMBL document CHEMBL5579794, “Improved synthesis and evaluation of preclinical pharmacodynamic parameters of a new monocyclic β-lactam DPI-2016” (Bioorg Med Chem Lett, 2024):

How the values were obtained:
[1] = Clearance in male Sprague-Dawley rat at 2 mg/kg by LC-MS/MS analysis; format: ADME, organism-based; details: in vivo
Cytochrome P450 2C9 = Cytochrome P450 2C9 (Homo sapiens, UniProt P11712); assay: Inhibition of CYP2C9 (unknown origin) at upto 100 uM; format: ADME
Cytochrome P450 2D6 = Cytochrome P450 2D6 (Homo sapiens, UniProt P10635); assay: Inhibition of CYP2D6 (unknown origin) at upto 100 uM; format: ADME
[2] = Stability in mouse plasma at 1 uM measured upto 120 mins by LC-MS/MS analysis; format: ADME, cell-free; details: 2 h
[3] = Plasma protein binding in human at 1 uM incubated for 6 hrs by LC-MS/MS analysis; format: ADME, cell-free
[4] = Stability in dog microsomes at 1 uM measured up to 60 mins in presence of NADPH by LC-MS/MS analysis; format: ADME, Canis lupus familiaris, Liver, Microsome; details: 1 h
[5] = AUC in male Sprague-Dawley rat at 2 mg/kg by LC-MS/MS analysis; format: ADME, organism-based; details: in vivo
[6] = Stability in dog plasma at 1 uM measured upto 120 mins by LC-MS/MS analysis; format: ADME, cell-free, Canis lupus familiaris; details: 2 h
[7] = Stability in monkey plasma at 1 uM measured upto 120 mins by LC-MS/MS analysis; format: ADME, cell-free, Macaca mulatta; details: rhesus monkey, 2 h
[8] = Stability in rat plasma at 1 uM measured upto 120 mins by LC-MS/MS analysis; format: ADME, cell-free; details: 2 h
Cytochrome P450 1A2 = molecular target: T1, Cytochrome P450 1A2 (Homo sapiens, UniProt P05177); assay: Inhibition of CYP1A2 (unknown origin) at upto 100 uM; format: ADME
T1 sequence (P05177 whole entry): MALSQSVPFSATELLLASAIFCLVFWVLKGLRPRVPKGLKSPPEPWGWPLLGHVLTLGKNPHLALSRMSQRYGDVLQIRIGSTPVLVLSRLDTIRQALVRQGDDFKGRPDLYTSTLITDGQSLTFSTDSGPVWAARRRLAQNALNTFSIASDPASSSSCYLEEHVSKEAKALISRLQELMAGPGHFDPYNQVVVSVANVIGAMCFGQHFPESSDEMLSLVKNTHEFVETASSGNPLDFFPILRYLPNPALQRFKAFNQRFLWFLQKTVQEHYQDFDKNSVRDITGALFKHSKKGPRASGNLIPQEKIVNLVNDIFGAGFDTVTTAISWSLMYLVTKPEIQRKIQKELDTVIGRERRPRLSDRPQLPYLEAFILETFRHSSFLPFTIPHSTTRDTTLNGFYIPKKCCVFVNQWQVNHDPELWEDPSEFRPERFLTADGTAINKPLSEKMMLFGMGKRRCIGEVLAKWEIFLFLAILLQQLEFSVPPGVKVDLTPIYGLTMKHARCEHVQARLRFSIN

Pseudomonas aeruginosa [9] = assay: Antibacterial activity against Pseudomonas aeruginosa infected in BalbC mouse model of Septicaemia infection assessed as survival rate at 8 mg/kg administered 30 mins post infection and measured after 5 days relative to control; format: functional; details: 120 h, time 5 day
Huh-7 = assay: Cytotoxicity against human Huh-7 cells at 300 ug/ml relative to control; format: toxicity, cell-based; details: at 300 µg/mL
[10] = Stability in human liver microsomes at 1 uM measured up to 60 mins in presence of NADPH by LC-MS/MS analysis; format: ADME, Microsome; details: 1 h
Cytochrome P450 3A4 = Cytochrome P450 3A4 (Homo sapiens, UniProt P08684); assay: Inhibition of CYP3A4 (unknown origin) at upto 100 uM; format: ADME
[11] = Stability in monkey liver microsomes at 1 uM measured up to 60 mins in presence of NADPH by LC-MS/MS analysis; format: ADME, Macaca mulatta, Microsome; details: rhesus monkey, 1 h
Cytochrome P450 2C19 = Cytochrome P450 2C19 (Homo sapiens, UniProt P33261); assay: Inhibition of CYP2C19 (unknown origin) at upto 100 uM; format: ADME
[12] = Stability in rat liver microsomes at 1 uM measured up to 60 mins in presence of NADPH by LC-MS/MS analysis; format: ADME, Microsome; details: 1 h
Cytochrome P450 2C8 = molecular target: T2, Cytochrome P450 2C8 (Homo sapiens, UniProt P10632); assay: Inhibition of CYP2C8 (unknown origin) at upto 100 uM; format: ADME
T2 sequence (P10632 whole entry): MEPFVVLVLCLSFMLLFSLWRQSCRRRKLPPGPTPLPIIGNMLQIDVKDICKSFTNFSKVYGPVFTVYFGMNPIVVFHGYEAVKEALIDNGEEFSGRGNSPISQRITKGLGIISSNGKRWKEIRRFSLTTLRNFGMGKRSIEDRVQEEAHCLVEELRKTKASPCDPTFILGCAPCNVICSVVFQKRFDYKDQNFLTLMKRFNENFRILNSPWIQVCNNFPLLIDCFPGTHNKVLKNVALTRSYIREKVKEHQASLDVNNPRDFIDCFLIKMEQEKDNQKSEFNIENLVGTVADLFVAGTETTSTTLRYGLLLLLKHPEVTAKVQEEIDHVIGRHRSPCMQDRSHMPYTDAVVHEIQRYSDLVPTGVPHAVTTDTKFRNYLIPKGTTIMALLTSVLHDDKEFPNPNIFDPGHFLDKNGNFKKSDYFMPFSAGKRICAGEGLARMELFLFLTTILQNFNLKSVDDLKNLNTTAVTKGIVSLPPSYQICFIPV

Cytochrome P450 2B6 = molecular target: T3, Cytochrome P450 2B6 (Homo sapiens, UniProt P20813); assay: Inhibition of CYP2B6 (unknown origin) at upto 100 uM; format: ADME
T3 sequence (P20813 whole entry): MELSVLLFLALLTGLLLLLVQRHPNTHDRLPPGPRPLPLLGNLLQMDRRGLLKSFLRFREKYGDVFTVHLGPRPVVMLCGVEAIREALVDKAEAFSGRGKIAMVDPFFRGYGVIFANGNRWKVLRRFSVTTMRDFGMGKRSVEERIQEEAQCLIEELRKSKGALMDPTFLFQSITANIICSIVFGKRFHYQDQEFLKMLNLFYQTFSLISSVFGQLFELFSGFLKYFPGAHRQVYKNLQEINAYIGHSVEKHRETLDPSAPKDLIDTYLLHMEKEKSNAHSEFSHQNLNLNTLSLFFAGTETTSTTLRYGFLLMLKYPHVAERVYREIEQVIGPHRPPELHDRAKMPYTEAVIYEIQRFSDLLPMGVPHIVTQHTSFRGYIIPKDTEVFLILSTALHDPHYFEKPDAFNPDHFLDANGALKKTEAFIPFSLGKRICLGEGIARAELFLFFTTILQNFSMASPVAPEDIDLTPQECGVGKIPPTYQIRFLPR

[13] = Stability in mouse liver microsomes at 1 uM measured up to 60 mins in presence of NADPH by LC-MS/MS analysis; format: ADME, Microsome; details: 1 h
Pseudomonas aeruginosa [14] = assay: Antibacterial activity against Pseudomonas aeruginosa infected in BalbC mouse model of Septicaemia infection assessed as survival rate at 128 mg/kg administration starting at 0.5 to 2 hrs post infection and measured after 2 days relative to control; format: functional; details: 48 h, time 2 day
Pseudomonas aeruginosa [15] = assay: Antibacterial activity against Pseudomonas aeruginosa infected in BalbC mouse model of Septicaemia infection assessed as survival rate at 128 mg/kg administration starting at 0.5 to 2 hrs post infection and measured after 1 day relative to control; format: functional; details: 24 h

Chain of Cytochrome P450 2D6 (P10635 whole entry): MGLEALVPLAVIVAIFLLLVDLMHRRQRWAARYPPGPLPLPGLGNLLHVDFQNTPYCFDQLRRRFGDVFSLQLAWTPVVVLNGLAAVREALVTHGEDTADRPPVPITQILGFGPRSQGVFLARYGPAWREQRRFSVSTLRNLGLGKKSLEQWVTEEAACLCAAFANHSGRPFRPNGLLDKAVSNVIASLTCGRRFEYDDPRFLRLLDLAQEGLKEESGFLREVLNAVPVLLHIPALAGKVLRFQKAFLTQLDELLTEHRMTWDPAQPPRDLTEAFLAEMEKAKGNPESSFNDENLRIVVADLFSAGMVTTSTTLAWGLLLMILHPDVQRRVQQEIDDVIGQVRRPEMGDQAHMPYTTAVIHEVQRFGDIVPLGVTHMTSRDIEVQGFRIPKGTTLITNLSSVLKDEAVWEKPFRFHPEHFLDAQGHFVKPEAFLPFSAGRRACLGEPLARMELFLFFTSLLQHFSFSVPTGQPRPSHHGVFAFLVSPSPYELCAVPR
Chain of Cytochrome P450 3A4 (P08684 whole entry): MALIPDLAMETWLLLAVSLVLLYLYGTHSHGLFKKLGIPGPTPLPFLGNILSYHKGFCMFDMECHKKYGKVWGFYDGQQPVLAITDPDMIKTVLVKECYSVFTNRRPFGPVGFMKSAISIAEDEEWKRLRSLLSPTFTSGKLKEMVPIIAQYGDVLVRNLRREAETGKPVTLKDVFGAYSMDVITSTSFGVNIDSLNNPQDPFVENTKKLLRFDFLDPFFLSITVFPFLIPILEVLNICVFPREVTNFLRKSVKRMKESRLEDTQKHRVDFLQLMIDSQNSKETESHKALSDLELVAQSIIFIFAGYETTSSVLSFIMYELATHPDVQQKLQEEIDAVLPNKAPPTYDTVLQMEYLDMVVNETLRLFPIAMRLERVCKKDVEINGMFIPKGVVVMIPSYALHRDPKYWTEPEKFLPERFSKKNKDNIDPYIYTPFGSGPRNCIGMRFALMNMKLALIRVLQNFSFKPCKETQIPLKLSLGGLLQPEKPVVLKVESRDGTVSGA
Chain of Cytochrome P450 2C9 (P11712 whole entry): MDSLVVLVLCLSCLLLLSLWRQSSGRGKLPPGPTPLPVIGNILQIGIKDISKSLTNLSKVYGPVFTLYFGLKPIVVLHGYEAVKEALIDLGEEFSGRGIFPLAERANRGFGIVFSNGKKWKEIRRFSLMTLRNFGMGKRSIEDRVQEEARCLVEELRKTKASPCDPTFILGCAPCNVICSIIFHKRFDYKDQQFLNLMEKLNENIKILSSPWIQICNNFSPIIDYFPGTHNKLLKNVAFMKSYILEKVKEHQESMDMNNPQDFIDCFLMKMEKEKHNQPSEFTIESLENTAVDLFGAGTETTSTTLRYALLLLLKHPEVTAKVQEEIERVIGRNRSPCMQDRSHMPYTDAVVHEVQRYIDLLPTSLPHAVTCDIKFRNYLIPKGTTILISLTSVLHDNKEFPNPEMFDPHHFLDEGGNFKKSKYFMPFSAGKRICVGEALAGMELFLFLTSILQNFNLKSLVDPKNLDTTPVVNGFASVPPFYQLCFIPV
Chain of Cytochrome P450 2C19 (P33261 whole entry): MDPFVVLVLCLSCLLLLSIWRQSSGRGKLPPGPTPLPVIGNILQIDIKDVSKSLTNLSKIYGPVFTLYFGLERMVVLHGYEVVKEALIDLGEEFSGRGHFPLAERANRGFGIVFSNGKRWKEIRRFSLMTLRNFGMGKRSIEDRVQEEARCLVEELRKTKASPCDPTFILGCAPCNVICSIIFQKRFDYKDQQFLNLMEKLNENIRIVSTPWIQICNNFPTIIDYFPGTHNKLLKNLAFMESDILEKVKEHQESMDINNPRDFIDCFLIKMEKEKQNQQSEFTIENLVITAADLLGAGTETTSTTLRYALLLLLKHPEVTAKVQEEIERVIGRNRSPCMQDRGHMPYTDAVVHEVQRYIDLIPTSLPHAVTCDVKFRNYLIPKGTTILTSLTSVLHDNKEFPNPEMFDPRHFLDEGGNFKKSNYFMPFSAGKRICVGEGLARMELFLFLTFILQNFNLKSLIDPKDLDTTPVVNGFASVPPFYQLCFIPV

Row | SMILES | inhibition (INH) (Cytochrome P450 2C9) | inhibition (INH) (Cytochrome P450 2D6) | Stability [2] | Stability [4] | AUC [5] [ng·h/mL] | Stability [6] | Stability [7] | Stability [8] | inhibition (INH) (Cytochrome P450 1A2) | Activity (Huh-7) [%] | Stability [10] | inhibition (INH) (Cytochrome P450 3A4) | Stability [11] | inhibition (INH) (Cytochrome P450 2C19) | Stability [12] | inhibition (INH) (Cytochrome P450 2C8) | inhibition (INH) (Cytochrome P450 2B6) | Stability [13] | also measured
1 | Cc1sc(N)nc1/C(=N/O[C@@H](COc1ccc(C(=N)N[C@@H]2CCNC2)cc1)C(=O)O)C(=O)N[C@@H]1C(=O)N(OS(=O)(=O)O)C1(C)C | Not Active | Not Active | Stable | Stable | 2790 | Stable | Stable | Stable | Not Active | 60 | Stable | Not Active | Stable | Not Active | Stable | Not Active | Not Active | Stable | clearance [1]: 12.5 mL/min/kg; fraction unbound at 6 h, 1 µM ([3]; read-out: PPB (converted)): 0.383; survival at 8 mg/kg (Pseudomonas aeruginosa [9]): 60%
2 | C[C@H]1[C@H](NC(=O)/C(=N\OC(C)(C)C(=O)O)c2csc(N)n2)C(=O)N1S(=O)(=O)O [AZTREONAM] | Not Active | Not Active | Stable | Stable | 2410 | Stable | Stable | Stable | Not Active | 60 | Stable | Not Active | Stable | Not Active | Stable | Not Active | Not Active | Stable | Stability ([3]; 6 h, 1 µM): Stable; survival at 128 mg/kg (Pseudomonas aeruginosa [14]): 90%; survival at 128 mg/kg (Pseudomonas aeruginosa [15]): 100%
